Results: PMC6268140, “Absorption and Interaction of the Main Constituents from the Traditional Chinese Drug Pair Shaoyao-Gancao via a Caco-2 Cell Monolayer Model” (Molecules, 2012)

How the values were obtained:
P-glycoprotein (P-gp) = P-glycoprotein (P-gp) (Homo sapiens, UniProt P08183); conditions: Caco-2, 4 h, 50 µM, pH 7.4
Text: To determine whether P-gp is involved in the transport of these compounds, their transports were studied in the presence of verapamil, a known inhibitor for P-gp.
All data were presented as means ± SD. […] Results were considered significant at p < 0.05.

[1] = Transport across Caco-2 cell monolayers (A-B and B-A directions); conditions: human; for Papp A→B at 4 h: Caco-2, pH 7.4; for efflux ratio at 4 h: Caco-2, pH 7.4, Efflux ratio PBA/PAB; for Papp at 4 h: mean ± SD, n = 3
Protocol: (§1) Cells were cultured in a humidified atmosphere of 5% CO2 and 95% air at 37 °C. The Dulbecco’s modified Eagle’s medium was supplemented with 10% (v/v) fetal bovine serum, 1% nonessential amino acids, 100 U/mL penicillin, and 100 µg/mL streptomycin. When the cell culture reached 80% confluence, it was rinsed with phosphate-buffered saline and split using trypsin. For transport experiments, the cells were seeded on 3 μm porous polycarbonate cell culture inserts from Nunc, which has a surface area of 4.2 cm^2 at a density of 2,500,000 cells/cm^2. The culture media was replaced every other day. The monolayers were ready for experiments from 19 to 22 days after seeding. Well-developed Caco-2 cell monolayers with transepithelial electrical resistance (TEER) values greater than 400 Ω × cm^2 were used for the experiment.
(§2) Paeoniflorin, glycyrrhizic acid, and liquiritin were dissolved in dimethyl sulfoxide (DMSO)-ethanol (v/v = 1/1) to prepare the stock solution (10 mM) for each single compound. The above-mentioned solutions were further diluted with Hank’s balanced salt solution (HBSS, pH = 7.4) to obtain a series of working standard solutions, and the final concentrations of paeoniflorin, glycyrrhizic acid, or liquiritin in the transport samples were 50 µM, 20 µM, or 50 µM, respectively. Moreover, the final concentrations of the organic solvent of different samples were controlled below 0.5% to ensure the safety to the cells.
(§3) Dry Shaoyao (100 g) or Gancao (100 g) herb materials were extracted twice with boiling water for 1 h each time, and the solutions were filtered through gauze. Then, the filtrates were merged and concentrated to 100 mL as the Shaoyao extract (1 g/mL) containing paeoniflorin (22.41 mg/mL) or Gancao extract (1 g/mL) containing glycyrrhizic acid (16.35 mg/mL) and liquiritin (22.38 mg/mL). Subsequently, the single extract or mixed extract was dissolved in HBSS (pH = 7.4) to obtain a series of working standard solutions, and the final concentrations of paeoniflorin, glycyrrhizic acid, or liquiritin in the transport samples were 50 µM, 22 µM, or 54 µM, respectively. In addition, the ratio of Shaoyao and Gancao in the mixed extract was 1:1. Meanwhile, testosterone (internal standard) was dissolved in acetonitrile with acetic acid (v/v = 94/6) to 100 µM. In addition, verapamil was dissolved in water to 5 mM when it was used.
(§4) The cell monolayers were washed three times with 37 °C HBSS (pH 7.4). The monolayers were incubated with the buffer for 1 h, and the incubation medium was then aspirated. Afterwards, a single component or extract solution was loaded on the apical or basolateral side. When the transport inhibitor (verapamil) was used, it was loaded only at the donor side. The amounts of transported drugs in the receiver media were determined by ultra-performance liquid chromatography (UPLC). In the test for each solution, four donor samples (400 μL) and four receiver samples (400 μL) were taken at time intervals of 1, 2, 3, and 4 h, followed by an immediate replacement with fresh donor solution (400 μL) to the donor side or fresh buffer (400 μL) to the receiver side.
(§5) To each transport sample (400 μL), 100 μL of acetonitrile containing 100 μM of testosterone was added as an internal standard and a preservative. The resulting mixture was vortexed for 30 s and then centrifuged at 15,000 rpm for 15 min, and the supernatant obtained was analyzed by UPLC.
(§6) UPLC was used to determine the concentration of the compounds in the transport samples.

Caco-2 cell monolayers = assay: as above; conditions: mixture of Shaoyao-Gancao extract vs. Gancao extract; 22 μM
Protocol: as §1, §2, §3, §4, §5, §6

[2] = single component solution, paeoniflorin 50 μM, glycyrrhizic acid 20 μM, liquiritin 50 μM
[3] = Caco-2, pH 7.4, Papp PAB, in the mixture of Shaoyao-Gancao extract (1:1), paeoniflorin 50 μM, glycyrrhizic acid 22 μM, liquiritin 54 μM
[4] = Caco-2, pH 7.4, Papp PAB, paeoniflorin in Shaoyao extract (50 μM), glycyrrhizic acid (22 μM) and liquiritin (54 μM) in Gancao extract
[5] = Caco-2, pH 7.4, Papp PBA (secretary permeability), single component solution, paeoniflorin 50 μM, glycyrrhizic acid 20 μM, liquiritin 50 μM, HBSS pH 7.4
[6] = Caco-2, pH 7.4, Papp PBA, in the mixture of Shaoyao-Gancao extract (1:1), paeoniflorin 50 μM, glycyrrhizic acid 22 μM, liquiritin 54 μM
[7] = Caco-2, pH 7.4, Papp PBA, paeoniflorin in Shaoyao extract (50 μM), glycyrrhizic acid (22 μM) and liquiritin (54 μM) in Gancao extract

Chain of P-glycoprotein (P-gp) (P08183 whole entry): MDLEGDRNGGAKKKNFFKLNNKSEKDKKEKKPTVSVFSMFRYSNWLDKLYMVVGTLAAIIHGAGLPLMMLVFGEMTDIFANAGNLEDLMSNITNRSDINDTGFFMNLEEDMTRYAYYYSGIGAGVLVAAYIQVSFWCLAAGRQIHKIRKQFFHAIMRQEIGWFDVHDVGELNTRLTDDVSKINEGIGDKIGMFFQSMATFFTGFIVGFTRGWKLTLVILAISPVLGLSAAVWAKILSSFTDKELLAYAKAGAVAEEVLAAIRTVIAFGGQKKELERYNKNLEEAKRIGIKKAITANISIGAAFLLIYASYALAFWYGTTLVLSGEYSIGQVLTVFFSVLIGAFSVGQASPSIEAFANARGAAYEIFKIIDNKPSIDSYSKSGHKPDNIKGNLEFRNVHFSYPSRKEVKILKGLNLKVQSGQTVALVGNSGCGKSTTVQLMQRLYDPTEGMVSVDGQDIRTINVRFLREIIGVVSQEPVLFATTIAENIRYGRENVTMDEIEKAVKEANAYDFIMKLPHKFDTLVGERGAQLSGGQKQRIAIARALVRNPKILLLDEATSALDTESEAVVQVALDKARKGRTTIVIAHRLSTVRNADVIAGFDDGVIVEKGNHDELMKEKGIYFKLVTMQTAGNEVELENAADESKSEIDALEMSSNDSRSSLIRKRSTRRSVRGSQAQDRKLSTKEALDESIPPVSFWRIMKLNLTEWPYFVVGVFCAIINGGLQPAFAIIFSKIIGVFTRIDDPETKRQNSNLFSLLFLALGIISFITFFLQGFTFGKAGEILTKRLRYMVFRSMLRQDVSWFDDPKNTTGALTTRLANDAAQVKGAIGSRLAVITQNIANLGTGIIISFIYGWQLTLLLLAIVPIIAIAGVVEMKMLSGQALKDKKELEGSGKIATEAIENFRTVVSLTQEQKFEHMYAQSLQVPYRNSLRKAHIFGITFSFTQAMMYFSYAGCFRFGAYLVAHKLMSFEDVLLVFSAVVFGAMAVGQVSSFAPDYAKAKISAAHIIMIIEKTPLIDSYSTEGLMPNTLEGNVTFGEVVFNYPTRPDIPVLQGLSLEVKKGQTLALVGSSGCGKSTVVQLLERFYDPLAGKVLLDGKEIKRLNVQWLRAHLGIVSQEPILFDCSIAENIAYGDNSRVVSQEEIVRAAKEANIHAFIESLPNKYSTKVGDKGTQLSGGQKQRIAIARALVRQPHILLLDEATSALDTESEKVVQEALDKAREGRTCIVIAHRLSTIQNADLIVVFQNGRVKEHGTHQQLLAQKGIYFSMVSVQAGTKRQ

Structure (SMILES): C[C@@]12C[C@@]3(O)O[C@@H](O1)[C@]1(COC(=O)c4ccccc4)[C@H]3C[C@@]12O[C@@H]1O[C@H](CO)[C@@H](O)[C@H](O)[C@H]1O [Paeoniflorin]
- Decrease in the efflux ratio after addition of verapamil (P-glycoprotein (P-gp)): 54.29%
- Papp A→B at 4 h [1]: 0.61 ± 0.09 ×10⁻⁶ cm/s
- efflux ratio at 4 h [1, 2]: 2.1
- Papp at 4 h [1, 3]: 1.96 ± 0.08 ×10⁻⁶ cm/s
- Papp at 4 h [1, 4]: 0.94 ± 0.11 ×10⁻⁶ cm/s
- Papp at 4 h [1, 5]: 1.28 ± 0.05 ×10⁻⁶ cm/s
- Papp at 4 h [1, 6]: 1.77 ± 0.07 ×10⁻⁶ cm/s
- Papp at 4 h [1, 7]: 1.3 ± 0.02 ×10⁻⁶ cm/s

Structure (SMILES): CC1(C)[C@@H](O[C@H]2O[C@H](C(=O)O)[C@@H](O)[C@H](O)[C@H]2O[C@@H]2O[C@H](C(=O)O)[C@@H](O)[C@H](O)[C@H]2O)CC[C@]2(C)[C@H]3C(=O)C=C4[C@@H]5C[C@@](C)(C(=O)O)CC[C@]5(C)CC[C@@]4(C)[C@]3(C)CC[C@@H]12 [Glycyrrhizic acid]
- Increase of PAB in the mixture compared to PAB in the Gancao extract (Caco-2 cell monolayers): over two times
- Papp A→B at 4 h [1]: 0.36 ± 0.04 ×10⁻⁶ cm/s
- efflux ratio at 4 h, 22 µM ([1]; Caco-2, pH 7.4, Decrease of efflux ratio in the mixture compared to the Gancao extract, mixture of Shaoyao-Gancao extract vs. Gancao extract, 22 μM): > 1
- efflux ratio at 4 h [1, 2]: 2.31
- Papp at 4 h [1, 3]: 1.17 ± 0.08 ×10⁻⁶ cm/s
- Papp at 4 h [1, 4]: 0.41 ± 0.05 ×10⁻⁶ cm/s
- Papp at 4 h [1, 5]: 0.83 ± 0.07 ×10⁻⁶ cm/s
- Papp at 4 h [1, 6]: 1.21 ± 0.06 ×10⁻⁶ cm/s
- Papp at 4 h [1, 7]: 0.89 ± 0.04 ×10⁻⁶ cm/s

Structure (SMILES): O=C1C[C@@H](c2ccc(O[C@@H]3O[C@H](CO)[C@@H](O)[C@H](O)[C@H]3O)cc2)Oc2cc(O)ccc21 [Liquiritin]
- Decrease in the efflux ratio after addition of verapamil (P-glycoprotein (P-gp)): 60.47%
- Papp A→B at 4 h [1]: 0.73 ± 0.04 ×10⁻⁶ cm/s
- efflux ratio at 4 h [1, 2]: 2.15
- Papp at 4 h [1, 3]: 1.31 ± 0.06 ×10⁻⁶ cm/s
- Papp at 4 h [1, 4]: 1.2 ± 0.06 ×10⁻⁶ cm/s
- Papp at 4 h [1, 5]: 1.57 ± 0.05 ×10⁻⁶ cm/s
- Papp at 4 h [1, 6]: 1.58 ± 0.04 ×10⁻⁶ cm/s
- Papp at 4 h [1, 7]: 1.59 ± 0.02 ×10⁻⁶ cm/s
